According to paper PMC5847527, “Identification of a novel 2-oxindole fluorinated derivative as in vivo antitumor agent for prostate cancer acting via AMPK activation” (Scientific Reports, 2018):
pIC50: −log10 of the molar value.

Key:
Format in all cases: cell-based, human
[1] = system: AMPK; assay: AMPK and ACC phosphorylation by Western blot in DU145 cells; details: 25 µM, 1 hour
Protocol: Figure 2 Effect of 2-oxindole fluorinated derivatives on AMPK activity in prostate cancer cells. (A) PC-3, DU145 and LNCaP cells were treated with 25 µM of the selected 2-oxindole fluorinated derivatives for 1 hour. Levels of the phosphorylated AMPK (pAMPK), phosphorylated ACC (pACC) and their total forms were determined by Western blot. Upper panel, a representative Western blot of three different experiments. β-tubulin (β-Tub) serves as a loading control. […] Lower panels, densitometric analyses of bands represented as the mean of the ratio pAMPK/AMPK or pACC/ACC ± SD of three different experiments. *p < 0.05 compared with the controls by one-way ANOVA followed by Fisher’s LSD test; ^#p < 0.05 compared with 2-oxindole fluorinated derivates or with the AMPK activators AMP or A769662 by one-way ANOVA followed by Tukey test.
Similar results were obtained although AMPK stimulation by compound 8c was not so strong (Fig. 2A). […]
(§1) Cells were lysed in Lysis buffer (50 mM Tris pH 7.4, 0.8 M NaCl, 5 mM MgCl2, 0.1% Triton X-100) containing Protease Inhibitor and Phosphatase inhibitor Cocktails (Roche, Basel, Switzerland). Protein concentrations were measured by BioRad™ protein assay kit (Richmond, CA, USA). […] Films were analyzed by densitometry. […]

[2] = system: p53; assay: p53 and p-p53 level by Western blot in LNCaP cells
Protocol: Figure 4 Cell Cycle analysis in 8c-treated prostate cancer cells. (A) PC-3 and LNCaP cells were treated with compound 8c for 24 hours and cell cycle analysis was analyzed by flow cytometry using Propidium Iodide (PI). Percentage of cells in subG0, G1, S, and G2/M phases is indicated in the histogram. (B) Levels of Cyclin D1, p-p53, p53, p21 and cleaved Caspase 3 (17 kDa fragment) were determined by Western blot. Upper panel, representative Western blot of two different experiments. β-tubulin (β-Tub) serves as a loading control. […]
Cyclin D1 activity is modulated by several inhibitors such as p21 which negatively regulate cell cycle progression by interacting with cyclin dependent kinases (cdks). […] To further study the role of compound 8c in cell cycle, we determined the expression of p21, p53 and the levels of cleaved caspase 3 in the prostate cells. P53 was only determined in LNCaP cells since PC-3 cells are p53-negative[40].
as §1

[3] = system: PNT2 cells; assay: Cell viability by MTT assay, PNT2 normal prostate cells
Protocol: Figure 3 Comparison of the effect of 2-oxindole fluorinated derivatives on the proliferation of human prostate cancer cells. (A) Normal (PTN2 and RWPE-1) and cancer (PC3,DU145 and LNCaP) prostate cells were treated with different doses of the compounds for 24 hours and cell viability was monitored by MTT assay. […] (C) PC-3, DU145 and LNCaP cells were treated with 25 µM of compound 8c for different times. Values were normalized with the control and represent the mean ± SD of at least three independent experiments. *p < 0.05 and **p < 0.01 compared to control by the Student’s - test.
Human prostate cancer epithelial PC-3, DU145 and LNCaP and human prostate normal RWPE-1 cells were purchased from American Type Culture Collection (ATCC CRL-1435 CRL-1740 and CRL 11609 respectively) (Rockville, MD, USA). The human prostate normal PNT2 cell line was purchased to ECACC (European Collection of Cell cultures, Salisbury, SP4 0JG, UK). Cells were routinely grown in RPMI 1640 medium supplemented with 100 IU/ml penicillin G sodium, 100 µg/ml streptomycin sulfate, 0.25 µg/ml amphotericin B (Invitrogen, Paisley, UK) and 10% fetal calf serum. Cells were used at passages between 10–20. For treatment experiments, cells were plated and grown over night, the medium was then replaced with serum-free RPMI 1640 for 24 hours and then incubated with different doses of the compounds for the indicated times.
Cell viability was determined by 3-(4,5-dimethylthiazol-2-yl)-2,5-diphenyltetrazolium bromide (MTT) (Sigma-Aldrich) method. […] The optical density in each well was evaluated by measurement of absorbance at 490 and 650 nm using a microplate reader (ELX 800 Bio-Tek Intruments, INC). IC50 values were calculated using GraphPad Prism vs 6.0 (GraphPad Software, Inc, La Jolla, CA, USA). Cell viability was also determined by counting viable and dead cells by Trypan blue staining. Trypan blue positive and negative cells were counted using a Countess^TM automated cell counter (Invitrogen, Carlsbad, CA, USA). Results were expressed in relation to total number of cells counted.

[4] = system: PTN2, RWPE-1, PC3, DU145 and LNCaP prostate cells; assay: Cell viability by MTT assay, statements for the five cell lines together
Protocol: We then study the effect of the compounds on the proliferative capacity of PC-3, DU145 and LNCaP prostate cells. We also used the prostate cell lines PTN2 and RWPE-1 which are derived from a histologically normal adult and therefore are considered as normal prostate cells, for comparison. All the compounds were tested at concentrations ranging from 1 to 100 μM.
(A) Normal (PTN2 and RWPE-1) and cancer (PC3,DU145 and LNCaP) prostate cells were treated with different doses of the compounds for 24 hours and cell viability was monitored by MTT assay. […] Values were normalized with the control and represent the mean ± SD of at least three independent experiments. *p < 0.05 and **p < 0.01 compared to control by the Student’s - test.
Human prostate cancer epithelial PC-3, DU145 and LNCaP and human prostate normal RWPE-1 cells were purchased from American Type Culture Collection (ATCC CRL-1435 CRL-1740 and CRL 11609 respectively) (Rockville, MD, USA). The human prostate normal PNT2 cell line was purchased to ECACC (European Collection of Cell cultures, Salisbury, SP4 0JG, UK). Cells were routinely grown in RPMI 1640 medium supplemented with 100 IU/ml penicillin G sodium, 100 µg/ml streptomycin sulfate, 0.25 µg/ml amphotericin B (Invitrogen, Paisley, UK) and 10% fetal calf serum. Cells were used at passages between 10–20. […]

O=C1Nc2ccccc2C1(F)Cc1ccc(-c2ccccc2)o1 (stereo not drawn) [Compound 8c, 3-fluoro-3-((5-phenylfuran-2-yl)methyl)indolin-2-one]
AMPK phosphorylation (pAMPK/AMPK) [1]: stimulate AMPK in DU145 cells | total and phosphorylated p53 [2]: increase in the total and phosphorylated forms of p53 | pIC50 ([3]; Homo sapiens, PNT2, MTT, 24 hours): 4.19 | inhibitory efficacy on cells viability at 50 μM ([3]; PNT2, 50 μM): 56% | inhibition of cell viability at 100 µM ([4]; 100 µM): almost totally inhibited cell viability | inhibition of cell proliferation ([4]; 1–100 µM, dose-dependent, 24 hours): effectively inhibited cell proliferation
